Literature values as cited in patent US20100173015A1, “COMPOSITIONS AND METHODS FOR THE ABSORPTION, CHELATION, AND ELIMINATION OF TRACE ELEMENTS” (priority 2009, published 2010).

Columns and labels:
NQO1 = settings: microarray, in the presence of taxifolin
GSTM1 = settings: microarray, in the presence of taxifolin
CYP2E1 = settings: microarray, in the presence of taxifolin
[1] = test system: human lung embryonic fibroblasts (TIG-1); settings: TIG-1 cells
[2] = test system: umbilical vein endothelial (HUVE) cells

**Q.** With `O=C1c2c(O)cc(O)cc2O[C@H](c2ccc(O)c(O)c2)[C@H]1O` [Dihydroquercetin] as the molecule, how does the “expression of phase II detoxification enzyme NQO1” value (NQO1) read?
**A.** upregulated

**Q.** And the “expression of phase II detoxification enzyme GSTM1” value (GSTM1)?
**A.** upregulated

**Q.** And the “expression of phase I detoxification enzyme CYP2E1” value (CYP2E1)?
**A.** down regulated

**Q.** What about the 50% lethal concentration [1] of the same molecule?
**A.** > 300 µmol

**Q.** And the 50% lethal concentration [2]?
**A.** > 200 µmol
